Results taken from patent publication US10548317B2, “Pesticidally active pyrazole derivatives” (SYNGENTA PARTICIPATIONS AG, priority 2015, dated 2020).

Columns and labels:
Format in all cases: in vivo
Plutella xylostella = Plutella xylostella (diamond back moth) artificial diet test; details: 120 h, application rate of 200 ppm, L2 larvae, 5 days after infestation, read-out: effect in at least one of the two categories (mortality or growth inhibition)
Procedure: Plutella xylostella (Diamond Back Moth):
24-well microtiter plates with artificial diet were treated with aqueous test solutions prepared from 10'000 ppm DMSO stock solutions by pipetting. After drying, the plates were infested with L2 larvae (10 to 15 per well). The samples were assessed for mortality and growth inhibition in comparison to untreated samples 5 days after infestation. The following compounds gave an effect of at least 80% in at least one of the two categories (mortality or growth inhibition) at an application rate of 200 ppm: 1, 2, 3, 4, 5, 6, 7, 8, 9, 10, 11, 12, 13, 14, 15, 16, 17, 18, 19, 20, 21, 22, 23, 24, 25, 26, 27, 28, 29, 30, 31, 32, 33, 35, 36, 37, 38, 39, 40, 41, 42, 43, 44, 45, 46, 47, 48, 50, 51, 52, 53, 54 and 55.

Spodoptera littoralis = Spodoptera littoralis (Egyptian cotton leaf worm) leaf disc spray test; details: foliar, 72 h, application rate of 200 ppm, cotton leaf discs, L1 larvae, 3 days after infestation, read-out: control (at least one of mortality, anti-feedant effect, growth inhibition)
Procedure: Spodoptera littoralis (Egyptian Cotton Leaf Worm)
Cotton leaf discs were placed on agar in 24-well microtiter plates and sprayed with aqueous test solutions prepared from 10'000 ppm DMSO stock solutions. After drying the leaf discs were infested with five L1 larvae. The samples were assessed for mortality, anti-feedant effect, and growth inhibition in comparison to untreated samples 3 days after infestation. Control of Spodoptera littoralis by a test sample is when at least one of mortality, anti-feedant effect, and growth inhibition is higher than the untreated sample.

Tetranychus urticae = Tetranychus urticae (two-spotted spider mite) bean leaf disc test; details: foliar, 192 h, application rate of 200 ppm, bean leaf discs, mixed population (mobile stages), 8 days after infestation
Procedure: Tetranychus urticae (Two-Spotted Spider Mite):
Bean leaf discs on agar in 24-well microtiter plates were sprayed with aqueous test solutions prepared from 10'000 ppm DMSO stock solutions. After drying the leaf discs were infested with a mite population of mixed ages. The samples were assessed for mortality on mixed population (mobile stages) 8 days after infestation.

Euschistus heros = Euschistus heros (neotropical brown stink bug) soybean leaf test; details: 120 h, application rate of 200 ppm, soybean leaves, N2 nymphs, 5 days after infestation, read-out: effect in at least one of the two categories (mortality or growth inhibition)
Procedure: Euschistus heros (Neotropical Brown Stink Bug)
Soybean leaves on agar in 24-well microtiter plates were sprayed with aqueous test solutions prepared from 10'000 ppm DMSO stock solutions. After drying the leaves were infested with N2 nymphs. The samples were assessed for mortality and growth inhibition in comparison to untreated samples 5 days after infestation. The following compounds gave an effect of at least 80% in at least one of the two categories (mortality or growth inhibition) at an application rate of 200 ppm: 3, 4, 5, 6, 9, 10, 12, 14, 15, 16, 17, 18, 20, 24, 27, 28, 29, 31, 32, 33, 36, 37, 38, 42, 43, 45, 50, 52, 53, 54 and 55.

Diabrotica balteata = Diabrotica balteata (corn root worm) maize sprout test; details: 96 h, application rate of 200 ppm, maize sprouts, L2 larvae, 4 days after infestation, read-out: effect in at least one of the two categories (mortality or growth inhibition)
Procedure: Diabrotica balteata, (Corn Root Worm)
Maize sprouts, placed on an agar layer in 24-well microtiter plates were treated with aqueous test solutions prepared from 10'000 ppm DMSO stock solutions by spraying. After drying, the plates were infested with L2 larvae (6 to 10 per well). The samples were assessed for mortality and growth inhibition in comparison to untreated samples 4 days after infestation. The following compounds gave an effect of at least 80% in at least one of the two categories (mortality or growth inhibition) at an application rate of 200 ppm: 1, 3, 4, 5, 6, 7, 8, 9, 10, 11, 12, 14, 15, 16, 17, 18, 19, 20, 21, 22, 23, 24, 25, 26, 27, 28, 29, 30, 31, 32, 33, 35, 36, 37, 38, 39, 40, 41, 42, 43, 44, 45, 48, 50, 51, 52, 53, 54 and 55.

Thrips tabaci = Thrips tabaci (onion thrips) sunflower leaf disc test; details: foliar, 144 h, application rate of 200 ppm, sunflower leaf discs, mixed ages, 6 days after infestation
Procedure: Thrips tabaci (Onion thrips):
Sunflower leaf discs were placed on agar in 24-well microtiter plates and sprayed with aqueous test solutions prepared from 10'000 ppm DMSO stock solutions. After drying the leaf discs were infested with a thrips population of mixed ages. The samples were assessed for mortality 6 days after infestation.

CC(C)NC(=O)c1cc(-c2cnn(-c3c(C(F)(F)F)c(C(F)(F)C(F)(F)F)nn3C)c2)sc1Cl [Compound 17]
≥ 80%: percent effect (mortality or growth inhibition) at 200 ppm (Plutella xylostella) | control (mortality, anti-feedant effect or growth inhibition) at 200 ppm (Spodoptera littoralis) | mortality at 200 ppm (Tetranychus urticae) | percent effect (mortality or growth inhibition) at 200 ppm (Euschistus heros) | percent effect (mortality or growth inhibition) at 200 ppm (Diabrotica balteata) | mortality at 200 ppm (Thrips tabaci)

Cn1nc(C(F)(F)C(F)(F)F)c(OC(F)F)c1-n1cc(-c2cc(C(=O)NC3(C#N)CC3)c(Cl)s2)cn1 [Compound 38]
≥ 80%: percent effect (mortality or growth inhibition) at 200 ppm (Plutella xylostella) | control (mortality, anti-feedant effect or growth inhibition) at 200 ppm (Spodoptera littoralis) | mortality at 200 ppm (Tetranychus urticae) | percent effect (mortality or growth inhibition) at 200 ppm (Euschistus heros) | percent effect (mortality or growth inhibition) at 200 ppm (Diabrotica balteata) | mortality at 200 ppm (Thrips tabaci)

Cn1nc(C(F)(F)C(F)(F)F)c(C(F)(F)F)c1-n1cc(-c2cc(C(=O)NC3(c4ccccn4)CC3)c(Cl)s2)cn1 [Compound 15]
≥ 80%: percent effect (mortality or growth inhibition) at 200 ppm (Plutella xylostella) | control (mortality, anti-feedant effect or growth inhibition) at 200 ppm (Spodoptera littoralis) | mortality at 200 ppm (Tetranychus urticae) | percent effect (mortality or growth inhibition) at 200 ppm (Euschistus heros) | percent effect (mortality or growth inhibition) at 200 ppm (Diabrotica balteata)

CN(C(=O)c1cc(-c2cnn(-c3c(C(F)(F)F)c(C(F)(F)C(F)(F)F)nn3C)c2)sc1Cl)C1(C#N)CC1 [Compound 9]
≥ 80%: percent effect (mortality or growth inhibition) at 200 ppm (Plutella xylostella) | control (mortality, anti-feedant effect or growth inhibition) at 200 ppm (Spodoptera littoralis) | mortality at 200 ppm (Tetranychus urticae) | percent effect (mortality or growth inhibition) at 200 ppm (Euschistus heros) | percent effect (mortality or growth inhibition) at 200 ppm (Diabrotica balteata) | mortality at 200 ppm (Thrips tabaci)

Cn1nc(OC(F)(F)C(F)C(F)(F)F)c(C(F)(F)F)c1-n1cc(-c2cc(C(=O)NC3CC3)c(Cl)s2)cn1 (centres unmarked) [Compound 53]
≥ 80%: percent effect (mortality or growth inhibition) at 200 ppm (Plutella xylostella) | control (mortality, anti-feedant effect or growth inhibition) at 200 ppm (Spodoptera littoralis) | percent effect (mortality or growth inhibition) at 200 ppm (Euschistus heros) | percent effect (mortality or growth inhibition) at 200 ppm (Diabrotica balteata)

C=C(Cl)CNC(=O)c1cc(-c2cnn(-c3c(C(F)(F)F)c(C(F)(F)C(F)(F)F)nn3C)c2)sc1Cl [Compound 31]
≥ 80%: percent effect (mortality or growth inhibition) at 200 ppm (Plutella xylostella) | control (mortality, anti-feedant effect or growth inhibition) at 200 ppm (Spodoptera littoralis) | mortality at 200 ppm (Tetranychus urticae) | percent effect (mortality or growth inhibition) at 200 ppm (Euschistus heros) | percent effect (mortality or growth inhibition) at 200 ppm (Diabrotica balteata) | mortality at 200 ppm (Thrips tabaci)

Cn1nc(C(F)(F)C(F)(F)F)c(C(F)(F)F)c1-n1cc(-c2cc(C(=O)NCC(F)(F)F)c(Cl)s2)cn1 [Compound 14]
≥ 80%: percent effect (mortality or growth inhibition) at 200 ppm (Plutella xylostella) | control (mortality, anti-feedant effect or growth inhibition) at 200 ppm (Spodoptera littoralis) | percent effect (mortality or growth inhibition) at 200 ppm (Euschistus heros) | percent effect (mortality or growth inhibition) at 200 ppm (Diabrotica balteata) | mortality at 200 ppm (Thrips tabaci)

Cn1nc(OC(F)(F)C(F)OC(F)(F)F)c(C(F)(F)F)c1-n1cc(-c2cc(C(=O)NC3CC3)c(Cl)s2)cn1 (centres unmarked) [Compound 55]
≥ 80%: percent effect (mortality or growth inhibition) at 200 ppm (Plutella xylostella) | control (mortality, anti-feedant effect or growth inhibition) at 200 ppm (Spodoptera littoralis) | percent effect (mortality or growth inhibition) at 200 ppm (Euschistus heros) | percent effect (mortality or growth inhibition) at 200 ppm (Diabrotica balteata)

CNC(=O)c1cc(-c2cnn(-c3c(C(F)(F)F)c(C(F)(F)C(F)(F)F)nn3C)c2)sc1Cl [Compound 18]
≥ 80%: percent effect (mortality or growth inhibition) at 200 ppm (Plutella xylostella) | control (mortality, anti-feedant effect or growth inhibition) at 200 ppm (Spodoptera littoralis) | percent effect (mortality or growth inhibition) at 200 ppm (Euschistus heros) | percent effect (mortality or growth inhibition) at 200 ppm (Diabrotica balteata) | mortality at 200 ppm (Thrips tabaci)

C=C(F)CNC(=O)c1cc(-c2cnn(-c3c(C(F)(F)F)c(C(F)(F)C(F)(F)F)nn3C)c2)sc1Cl [Compound 24]
≥ 80%: percent effect (mortality or growth inhibition) at 200 ppm (Plutella xylostella) | control (mortality, anti-feedant effect or growth inhibition) at 200 ppm (Spodoptera littoralis) | percent effect (mortality or growth inhibition) at 200 ppm (Euschistus heros) | percent effect (mortality or growth inhibition) at 200 ppm (Diabrotica balteata) | mortality at 200 ppm (Thrips tabaci)

Cn1nc(C(F)(F)C(F)(F)F)c(C(F)(F)F)c1-n1cc(-c2cc(C(=O)NC3CC3F)c(Cl)s2)cn1 (centres unmarked) [Compound 32]
≥ 80%: percent effect (mortality or growth inhibition) at 200 ppm (Plutella xylostella) | control (mortality, anti-feedant effect or growth inhibition) at 200 ppm (Spodoptera littoralis) | percent effect (mortality or growth inhibition) at 200 ppm (Euschistus heros) | percent effect (mortality or growth inhibition) at 200 ppm (Diabrotica balteata) | mortality at 200 ppm (Thrips tabaci)

Cn1nc(OC(F)(F)C(F)OC(F)(F)F)c(C(F)(F)F)c1-n1cc(-c2cc(C(=O)NC3(C#N)CC3)c(Cl)s2)cn1 (centres unmarked) [Compound 54]
≥ 80%: percent effect (mortality or growth inhibition) at 200 ppm (Plutella xylostella) | control (mortality, anti-feedant effect or growth inhibition) at 200 ppm (Spodoptera littoralis) | percent effect (mortality or growth inhibition) at 200 ppm (Euschistus heros) | percent effect (mortality or growth inhibition) at 200 ppm (Diabrotica balteata)

Cn1nc(OC(F)(F)C(F)C(F)(F)F)c(C(F)(F)F)c1-n1cc(-c2cc(C(=O)NC3(C#N)CC3)c(Cl)s2)cn1 (centres unmarked) [Compound 52]
≥ 80%: percent effect (mortality or growth inhibition) at 200 ppm (Plutella xylostella) | control (mortality, anti-feedant effect or growth inhibition) at 200 ppm (Spodoptera littoralis) | percent effect (mortality or growth inhibition) at 200 ppm (Euschistus heros) | percent effect (mortality or growth inhibition) at 200 ppm (Diabrotica balteata)

Cn1nc(C(F)(F)C(F)(F)F)c(C(F)(F)F)c1-n1cc(-c2cc(C(=O)NCC=C(Cl)Cl)c(Cl)s2)cn1 [Compound 28]
≥ 80%: percent effect (mortality or growth inhibition) at 200 ppm (Plutella xylostella) | control (mortality, anti-feedant effect or growth inhibition) at 200 ppm (Spodoptera littoralis) | mortality at 200 ppm (Tetranychus urticae) | percent effect (mortality or growth inhibition) at 200 ppm (Euschistus heros) | percent effect (mortality or growth inhibition) at 200 ppm (Diabrotica balteata)

Cn1nc(C(F)(F)C(F)(F)F)c(C(F)(F)F)c1-n1cc(-n2cc(C(=O)NC3CC3)c(C(F)(F)F)c2)cn1 [Compound 45]
≥ 80%: percent effect (mortality or growth inhibition) at 200 ppm (Plutella xylostella) | control (mortality, anti-feedant effect or growth inhibition) at 200 ppm (Spodoptera littoralis) | percent effect (mortality or growth inhibition) at 200 ppm (Euschistus heros) | percent effect (mortality or growth inhibition) at 200 ppm (Diabrotica balteata) | mortality at 200 ppm (Thrips tabaci)

Cn1nc(C(F)(F)C(F)(F)F)c(C(F)(F)F)c1-n1cc(-c2cc(C(N)=O)c(Cl)s2)cn1 [Compound 16]
≥ 80%: percent effect (mortality or growth inhibition) at 200 ppm (Plutella xylostella) | control (mortality, anti-feedant effect or growth inhibition) at 200 ppm (Spodoptera littoralis) | percent effect (mortality or growth inhibition) at 200 ppm (Euschistus heros) | percent effect (mortality or growth inhibition) at 200 ppm (Diabrotica balteata) | mortality at 200 ppm (Thrips tabaci)
